Source: patent US11780893B2, “Kv1.3 blockers” (Zealand Pharma A/S, priority 2019, dated 2023)
Like-named read-outs stand apart in the source and are kept apart here. Bridge positions count the residues as written; N and C are the ends. Square brackets hold non-standard residues; d marks the D form. Peptide text beside a SMILES is read from it. Nle = CCCC[C@H](N)C(=O)O

Assays:
[1] = target: T1, human Kv1.3 voltage-gated K+ channel (Homo sapiens, UniProt P22001); experiment: cell-based; settings: inhibition of thallium flux, CHO-DUKX cells with human Kv1.3; read-out: IC50
T1 construct: host or cells: CHO-DUKX
T1 sequence (P22001 whole entry): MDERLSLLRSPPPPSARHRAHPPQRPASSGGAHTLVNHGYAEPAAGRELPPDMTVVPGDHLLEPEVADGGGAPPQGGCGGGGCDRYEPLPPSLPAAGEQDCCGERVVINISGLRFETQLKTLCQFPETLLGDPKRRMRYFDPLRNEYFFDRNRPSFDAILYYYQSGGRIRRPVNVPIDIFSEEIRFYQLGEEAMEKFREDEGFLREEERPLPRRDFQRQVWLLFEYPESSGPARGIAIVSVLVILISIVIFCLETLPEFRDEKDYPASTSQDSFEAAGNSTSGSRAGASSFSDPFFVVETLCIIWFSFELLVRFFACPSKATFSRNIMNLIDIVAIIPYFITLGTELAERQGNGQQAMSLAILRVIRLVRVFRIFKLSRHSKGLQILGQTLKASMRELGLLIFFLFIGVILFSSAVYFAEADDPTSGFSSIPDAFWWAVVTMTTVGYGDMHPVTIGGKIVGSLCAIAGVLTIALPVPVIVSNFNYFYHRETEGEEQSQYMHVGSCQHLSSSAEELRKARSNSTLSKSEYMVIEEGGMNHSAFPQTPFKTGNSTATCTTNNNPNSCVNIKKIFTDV

Kv1.3 = target: T2, Kv1.3 (Homo sapiens, UniProt P22001); experiment: cell-based; settings: CHO cells, whole-cell patch clamp; read-out: Potency IC50 (nM) Kv1.3
T2 construct: expressed in transfected cells; host or cells: Chinese Hamster Ovary (CHO)
T2 sequence (P22001 whole entry): as above

Rat whole blood = Rat whole blood (Rattus norvegicus, UniProt P15384)
Chain of Rat whole blood (P15384 whole entry): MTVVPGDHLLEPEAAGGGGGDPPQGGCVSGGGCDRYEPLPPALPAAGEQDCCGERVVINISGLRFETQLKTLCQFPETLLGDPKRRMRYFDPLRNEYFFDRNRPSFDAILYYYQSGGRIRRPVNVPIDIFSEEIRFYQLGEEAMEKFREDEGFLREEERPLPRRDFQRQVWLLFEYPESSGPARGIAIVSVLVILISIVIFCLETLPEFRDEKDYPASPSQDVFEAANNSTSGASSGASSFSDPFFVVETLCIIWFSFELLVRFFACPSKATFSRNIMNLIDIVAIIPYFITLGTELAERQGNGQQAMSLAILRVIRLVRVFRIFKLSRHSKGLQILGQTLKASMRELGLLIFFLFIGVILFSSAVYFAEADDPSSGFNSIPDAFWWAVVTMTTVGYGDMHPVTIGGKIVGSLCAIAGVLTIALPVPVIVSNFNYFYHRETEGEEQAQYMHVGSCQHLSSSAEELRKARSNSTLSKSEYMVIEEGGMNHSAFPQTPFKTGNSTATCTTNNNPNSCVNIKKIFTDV

SMILES	IC50 [1] [nM]	IC50 (Kv1.3) [nM]	IC50 (Rat whole blood) [nM]	IC50 (Rat whole blood; inhibition of IL-17A release, thapsigargin, 24 Hr, at least 2 replicates) [nM]
CCCC[C@H](NC(=O)[C@H](CC(=O)O)NC(=O)[C@H](CCCC)NC(=O)[C@@H](N)CC(N)=O)C(=O)N[C@@H](CCCNC(=N)N)C(=O)N[C@H]1CSSC[C@@H]2NC(=O)[C@H](CCCCN)NC(=O)CNC(=O)[C@H](Cc3ccccc3)NC(=O)[C@H]([C@@H](C)CC)NC(=O)[C@H](CO)NC(=O)CNC(=O)[C@H]([C@@H](C)CC)NC(=O)[C@H](C)NC(=O)[C@H](CCCCN)NC(=O)[C@H](CC(C)C)NC(=O)[C@@H]3CSSC[C@@H](C(=O)N[C@@H](Cc4ccc(O)cc4)C(=O)N4CCC[C@H]4C(=O)N[C@@H](CCCNC(=N)N)C(N)=O)NC(=O)[C@H](CCCCN)NC(=O)[C@H](CSSC[C@H](NC(=O)[C@H](CCC(=O)O)NC(=O)[C@H](C(C)C)NC(=O)[C@H](CO)NC(=O)[C@H](C)NC(=O)[C@H](CO)NC1=O)C(=O)N[C@@H](CCCCN)C(=O)N[C@@H](CCC(N)=O)C(=O)N[C@@H](CCCCN)C(=O)N3)NC(=O)[C@H](CCCCN)NC(=O)[C@H](CCCCN)NC(=O)[C@H](CC(N)=O)NC(=O)[C@H](CCSC)NC2=O [Compound 39] (H-N[Nle]D[Nle]RCSASVECKQKCLKAIGSIFGKCMNKKCKCYPR-NH2; disulfide 6-27, 12-32, 16-34)	0.11	0.15	–	–
CC[C@H](C)[C@@H]1NC(=O)[C@H](C)NC(=O)[C@H](CCCCN)NC(=O)[C@H](Cc2ccc(O)cc2)NC(=O)[C@@H]2CSSC[C@@H](C(=O)N[C@@H](Cc3ccc(O)cc3)C(=O)N3CCC[C@H]3C(=O)N[C@@H](CCCNC(=N)N)C(N)=O)NC(=O)[C@H](CCCCN)NC(=O)[C@@H]3CSSC[C@H](NC(=O)[C@H](CCC(=O)O)NC(=O)[C@H](C(C)C)NC(=O)[C@H](CO)NC(=O)[C@H](C)NC(=O)[C@H](CO)NC(=O)[C@@H](NC(=O)[C@H](CCCNC(=N)N)NC(=O)[C@H](CCSC)NC(=O)[C@H](CC(=O)O)NC(=O)[C@H](CCSC)NC(=O)[C@@H](N)CC(N)=O)CSSC[C@H](NC(=O)[C@H](CCCCN)NC(=O)CNC(=O)[C@H](Cc4ccccc4)NC(=O)[C@H]([C@@H](C)CC)NC(=O)[C@H](CO)NC(=O)CNC1=O)C(=O)N[C@@H](CCSC)C(=O)N[C@@H](CC(N)=O)C(=O)N[C@@H](CCCCN)C(=O)N[C@@H](CCCCN)C(=O)N3)C(=O)N[C@@H](CCCCN)C(=O)N[C@@H](CCC(N)=O)C(=O)N[C@@H](CCCCN)C(=O)N2 [Compound 50] (H-NMDMRCSASVECKQKCYKAIGSIFGKCMNKKCKCYPR-NH2; disulfide 6-27, 12-32, 16-34)	0.16	0.27	–	–
CC[C@H](C)[C@@H]1NC(=O)[C@H](C)NC(=O)[C@H](CCCCN)NC(=O)[C@H](CCCNC(=N)N)NC(=O)[C@@H]2CSSC[C@@H](C(=O)N[C@@H](Cc3ccc(O)cc3)C(=O)N3CCC[C@H]3C(=O)N[C@@H](CCCNC(=N)N)C(N)=O)NC(=O)[C@H](CCCCN)NC(=O)[C@@H]3CSSC[C@H](NC(=O)[C@H](CCC(=O)O)NC(=O)[C@H](C(C)C)NC(=O)[C@H](CO)NC(=O)[C@H](C)NC(=O)[C@H](CO)NC(=O)[C@@H](NC(=O)[C@H](CCCNC(=N)N)NC(=O)[C@H](CCSC)NC(=O)[C@H](CC(=O)O)NC(=O)[C@H](CCSC)NC(=O)[C@@H](N)CC(N)=O)CSSC[C@H](NC(=O)[C@H](CCCCN)NC(=O)CNC(=O)[C@H](Cc4ccccc4)NC(=O)[C@H]([C@@H](C)CC)NC(=O)[C@H](CO)NC(=O)CNC1=O)C(=O)N[C@@H](CCSC)C(=O)N[C@@H](CC(N)=O)C(=O)N[C@@H](CCCCN)C(=O)N[C@@H](CCCCN)C(=O)N3)C(=O)N[C@@H](CCCCN)C(=O)N[C@@H](CCC(N)=O)C(=O)N[C@@H](CCCCN)C(=O)N2 [Compound 51] (H-NMDMRCSASVECKQKCRKAIGSIFGKCMNKKCKCYPR-NH2; disulfide 6-27, 12-32, 16-34)	0.11	0.25	–	–
CC[C@H](C)[C@@H]1NC(=O)[C@H](Cc2ccc(O)cc2)NC(=O)[C@H](CCCCN)NC(=O)[C@H](CC(C)C)NC(=O)[C@@H]2CSSC[C@@H](C(=O)N[C@@H](Cc3ccc(O)cc3)C(=O)N3CCC[C@H]3C(=O)N[C@@H](CCCNC(=N)N)C(N)=O)NC(=O)[C@H](CCCCN)NC(=O)[C@@H]3CSSC[C@H](NC(=O)[C@H](CCC(=O)O)NC(=O)[C@H](C(C)C)NC(=O)[C@H](CO)NC(=O)[C@H](C)NC(=O)[C@H](CO)NC(=O)[C@@H](NC(=O)[C@H](CCCNC(=N)N)NC(=O)[C@H](CCSC)NC(=O)[C@H](CC(=O)O)NC(=O)[C@H](CCSC)NC(=O)[C@@H](N)CC(N)=O)CSSC[C@H](NC(=O)[C@H](CCCCN)NC(=O)CNC(=O)[C@H](Cc4ccccc4)NC(=O)[C@H]([C@@H](C)CC)NC(=O)[C@H](CO)NC(=O)CNC1=O)C(=O)N[C@@H](CCSC)C(=O)N[C@@H](CC(N)=O)C(=O)N[C@@H](CCCCN)C(=O)N[C@@H](CCCCN)C(=O)N3)C(=O)N[C@@H](CCCCN)C(=O)N[C@@H](CCC(N)=O)C(=O)N[C@@H](CCCCN)C(=O)N2 [Compound 55] (H-NMDMRCSASVECKQKCLKYIGSIFGKCMNKKCKCYPR-NH2; disulfide 6-27, 12-32, 16-34)	0.12	0.12	–	–
CCCC[C@@H]1NC(=O)[C@@H]2CSSC[C@H](NC(=O)[C@H](CCCNC(=N)N)NC(=O)[C@H](CCCC)NC(=O)[C@H](CC(=O)O)NC(=O)[C@H](CCCC)NC(=O)[C@@H](N)Cc3c[nH]cn3)C(=O)N[C@@H](CO)C(=O)N[C@@H](C)C(=O)N[C@@H](CO)C(=O)N[C@@H](C(C)C)C(=O)N[C@@H](CCC(=O)O)C(=O)N[C@H]3CSSC[C@H](NC(=O)[C@H](CCCCN)NC(=O)[C@H](CCCCN)NC(=O)[C@H](CC(N)=O)NC1=O)C(=O)N[C@@H](CCCCN)C(=O)N[C@H](C(=O)N[C@@H](Cc1ccc(O)cc1)C(=O)N1CCC[C@H]1C(=O)N[C@@H](CCCNC(=N)N)C(N)=O)CSSC[C@H](NC(=O)[C@H](CCCCN)NC(=O)[C@H](CCC(N)=O)NC(=O)[C@H](CCCCN)NC3=O)C(=O)N[C@@H](CC(C)C)C(=O)N[C@@H](CCCCN)C(=O)N[C@@H](C)C(=O)N[C@@H]([C@@H](C)CC)C(=O)NCC(=O)N[C@@H](CO)C(=O)N[C@@H]([C@@H](C)CC)C(=O)N[C@@H](Cc1ccccc1)C(=O)NCC(=O)N[C@@H](CCCCN)C(=O)N2 [Compound 64] (H-H[Nle]D[Nle]RCSASVECKQKCLKAIGSIFGKC[Nle]NKKCKCYPR-NH2; disulfide 6-27, 12-32, 16-34)	0.12	0.25	–	–
CCCC[C@@H]1NC(=O)[C@@H]2CSSC[C@H](NC(=O)[C@H](CCCNC(=N)N)NC(=O)[C@H](CCCC)NC(=O)[C@H](CC(=O)O)NC(=O)[C@H](CCCC)NC(=O)[C@@H](N)Cc3ccc(O)cc3)C(=O)N[C@@H](CO)C(=O)N[C@@H](C)C(=O)N[C@@H](CO)C(=O)N[C@@H](C(C)C)C(=O)N[C@@H](CCC(=O)O)C(=O)N[C@H]3CSSC[C@H](NC(=O)[C@H](CCCCN)NC(=O)[C@H](CCCCN)NC(=O)[C@H](CC(N)=O)NC1=O)C(=O)N[C@@H](CCCCN)C(=O)N[C@H](C(=O)N[C@@H](Cc1ccc(O)cc1)C(=O)N1CCC[C@H]1C(=O)N[C@@H](CCCNC(=N)N)C(N)=O)CSSC[C@H](NC(=O)[C@H](CCCCN)NC(=O)[C@H](CCC(N)=O)NC(=O)[C@H](CCCCN)NC3=O)C(=O)N[C@@H](CC(C)C)C(=O)N[C@@H](CCCCN)C(=O)N[C@@H](C)C(=O)N[C@@H]([C@@H](C)CC)C(=O)NCC(=O)N[C@@H](CO)C(=O)N[C@@H]([C@@H](C)CC)C(=O)N[C@@H](Cc1ccccc1)C(=O)NCC(=O)N[C@@H](CCCCN)C(=O)N2 [Compound 65] (H-Y[Nle]D[Nle]RCSASVECKQKCLKAIGSIFGKC[Nle]NKKCKCYPR-NH2; disulfide 6-27, 12-32, 16-34)	0.12	0.14	–	–
CCCC[C@H](NC(=O)[C@H](CC(=O)O)NC(=O)[C@H](CCCC)NC(=O)[C@@H](N)CO)C(=O)N[C@@H](CCCNC(=N)N)C(=O)N[C@H]1CSSC[C@@H]2NC(=O)[C@H](CCCCN)NC(=O)CNC(=O)[C@H](Cc3ccccc3)NC(=O)[C@H]([C@@H](C)CC)NC(=O)[C@H](CO)NC(=O)CNC(=O)[C@H]([C@@H](C)CC)NC(=O)[C@H](C)NC(=O)[C@H](C)NC(=O)[C@H](CC(C)C)NC(=O)[C@@H]3CSSC[C@@H](C(=O)N[C@@H](Cc4ccc(O)cc4)C(=O)N4CCC[C@H]4C(=O)N[C@@H](CCCNC(=N)N)C(N)=O)NC(=O)[C@H](CCCCN)NC(=O)[C@H](CSSC[C@H](NC(=O)[C@H](CCC(=O)O)NC(=O)[C@H](C(C)C)NC(=O)[C@H](CO)NC(=O)[C@H](C)NC(=O)[C@H](CO)NC1=O)C(=O)N[C@@H](C)C(=O)N[C@@H](CCC(N)=O)C(=O)N[C@@H](CCCCN)C(=O)N3)NC(=O)[C@H](CCCCN)NC(=O)[C@H](CCCCN)NC(=O)[C@H](CC(N)=O)NC(=O)[C@H](CCSC)NC2=O [Compound 80] (H-S[Nle]D[Nle]RCSASVECAQKCLAAIGSIFGKCMNKKCKCYPR-NH2; disulfide 6-27, 12-32, 16-34)	0.15	0.16	–	–
CC[C@H](C)[C@@H]1NC(=O)[C@H](C)NC(=O)[C@H](C)NC(=O)[C@H](CC(C)C)NC(=O)[C@@H]2CSSC[C@@H](C(=O)N[C@@H](Cc3ccc(O)cc3)C(=O)N3CCC[C@H]3C(=O)N[C@@H](CCCNC(=N)N)C(=O)O)NC(=O)[C@H](CCCCN)NC(=O)[C@@H]3CSSC[C@H](NC(=O)[C@H](CCC(=O)O)NC(=O)[C@H](C(C)C)NC(=O)[C@H](CO)NC(=O)[C@H](C)NC(=O)[C@H](CO)NC(=O)[C@@H](NC(=O)[C@H](CCCNC(=N)N)NC(=O)[C@H](CC(C)C)NC(C)=O)CSSC[C@H](NC(=O)[C@H](CCCCN)NC(=O)CNC(=O)[C@H](Cc4ccccc4)NC(=O)[C@H]([C@@H](C)CC)NC(=O)[C@H](CO)NC(=O)CNC1=O)C(=O)N[C@@H](CCSC)C(=O)N[C@@H](CC(N)=O)C(=O)N[C@@H](CCCCN)C(=O)N[C@@H](CCCCN)C(=O)N3)C(=O)N[C@@H](CCCCN)C(=O)N[C@@H](CCC(N)=O)C(=O)N[C@@H](CCCCN)C(=O)N2 [Compound 116] (Ac-LRCSASVECKQKCLAAIGSIFGKCMNKKCKCYPR-OH; disulfide 3-24, 9-29, 13-31)	0.18	–	≤ 1	0.36
